US8044042B2, “Thienotriazolodiazepine compound and medicinal use thereof” (Mitsubishi Tanabe Pharma Corporation, priority 2005, dated 2011)
Read-outs that look alike come from different tables or passages of the source.

Columns and labels:
[1] = test system: CD28-dependent T cell growth; assay: Mouse T cell proliferation stimulated with anti-CD28 antibody and PMA (tritiumthymidine uptake); assay type: cell-based; details: for IC50: BALB/c mouse T cells, 10 ng/mL PMA and 250 ng/mL anti-CD28 antibody, tritiumthymidine uptake, read-out: CD28-dependent T cell growth suppressive action (IC50); for CD28-dependent T cell growth suppressive action (in words): mouse T cells stimulated with PMA and anti-CD28 antibody
Protocol: The spleen was aseptically isolated from 6-7-week-old male BALB/c mice (CHARLES RIVER LABORATORIES JAPAN, INC.), and splenocyte suspension was prepared using RPMI1640 medium (manufactured by Sigma-Aldrich Ltd.). After hemolysis by a hypotonic treatment using a mixed solution of 0.83% aqueous ammonium chloride and Tris-HCl buffer (pH 7.65) at 9:1, a T cell concentrated fraction was obtained using a T cell concentrated column (manufactured by R&D systems). A cell suspension prepared using RPMI1640 medium containing 10% fetal calf serum (FCS, manufactured by Sigma-Aldrich Ltd.) was added to a flat-bottomed 96 well microtest plate (manufactured by Becton, Dickinson and Company) at 5×10^5 cells/well. Furthermore, a test compound diluted with a medium to the final concentration of 1-10000 nmol/L, 10 ng/mL PMA (manufactured by Sigma-Aldrich Ltd.) and 250 ng/mL anti-CD28 antibody (manufactured by BD pharmingen) were added, and the mixture was cultured under the conditions of 37° C., 5% carbon dioxide, 95% air for 20 hr. After the completion of culture, tritiumthymidine (specific activity: […], manufactured by MP Biochemicals) was added at 18.5 kBq/well, and the mixture was further cultured for 4 hr. Then, the cells were recovered in a glass fiber filter using a cell harvester (manufactured by Molecular Devices Corp.), the radioactivity taken into the cells was measured using a plate scintillation counter (microbeta 1460, manufactured by PerkinElmer), based on which the mouse T cell growth induced by stimulation with PMA and anti-CD28 antibody was measured. To be specific, suppressing rate (%)=(1−(radioactivity (cpm) of well added with test compound)/(radioactivity (cpm) of well without addition of test compound))×100 was calculated from the average amount of tritiumthymidine uptake (cpm) of T cells in each well added with various concentrations of test compound. In addition, based on the dose response curve obtained by plotting the average tritiumthymidine uptake amount (cpm) or suppressing rate on the vertical axis and the concentration on the transverse axis, the concentration of the compound (IC50) suppressing the value to 50% of that of the control group was determined by nonlinear regression.

[2] = test system: TYPE II Collagen-Induced Arthritis in DBA/1J Mouse; assay: Type II collagen-induced arthritis in DBA/1J mouse; assay type: in vivo; details: 840 h; for inhibition in vivo at 3 mg/kg: 3 mg/kg oral, 2 weeks from booster, average arthritis score at 35 days after primary immunization, P <0.05, read-out: suppressing rate (%) of arthritis score
Protocol: Bovine Type II collagen (purchased from collagen technical workshop) (100-200 μg) was mixed with complete Freund's adjuvant (manufactured by Sigma-Aldrich Ltd.) containing killed tuberculosis H37Ra. Using the resulting emulsion, 6 to 7-week-old male DBA/1J mice (CHARLES RIVER LABORATORIES JAPAN, INC.) were subcutaneously immunized at the tail root twice at 3 week intervals, whereby arthritis was developed. A test compound was suspended or dissolved in 0.5% carboxymethylcellulose (manufactured by Sigma-Aldrich Ltd.), and repetitively administered orally at a dose of 0.1-30 mg/kg body weight using an oral gavage needle for 2 weeks from the day of booster. As to this model, the symptoms of arthritis of four limbs were evaluated based on the following judgment criteria using the scores of from 0 to 4. The arthritis score of each mouse was shown by the total of the scores of four limbs (maximum: 16 points).
As regards the arthritis score, each group (n=5-6) was evaluated using an average value and mean error, with a group administered only with a vehicle being control, and Mann-Whitney U test was used for statistical analysis, wherein p value of 0.05 or below was determined to be significant. In the following, the suppressive action of the compound of the present invention on mouse collagen induced arthritis is shown by the suppressing rate (%) (1−(average arthritis score of compound administration group)/(average arthritis score of control group)×100) calculated from the average arthritis score at 35 days after the primary immunization.

[3] = test system: Experimental Autoimmune Encephalomyelitis in SJL/J Mouse; assay: Experimental autoimmune encephalomyelitis in SJL/J mouse; assay type: in vivo; details: 3 weeks from immunization, average EAE score at 14 days after immunization, P <0.05
Protocol: The 139th-151st peptides (50 μg) of rat-derived proteolipid protein (manufactured by Bachem) was mixed with complete Freund's adjuvant containing killed tuberculosis H37Ra. Using the resulting emulsion, 10-week-old female SJL/J mice (CHARLES RIVER LABORATORIES JAPAN, INC.) were subcutaneously immunized on the back, whereby experimental autoimmune encephalomyelitis (EAE) was developed. The compound of the present invention or a pharmaceutically acceptable salt thereof was suspended or dissolved in 0.5% carboxymethylcellulose (manufactured by Sigma-Aldrich Ltd.), and repetitively administered orally at a dose of 3-30 mg/kg body weight using an oral gavage needle for 3 weeks from the day of immunization. As to this model, the symptoms of EAE were evaluated based on the following judgment criteria using the scores of from 0 to 5.
As regards the EAE score, each group (n=10) was evaluated using an average value and mean error, with a group administered only with a vehicle being control, and Mann-Whitney U test was used for statistical analysis, wherein p value of 0.05 or below was determined to be significant. In the following, the suppressive action of the compound of the present invention on EAE is shown by the suppressing rate (%) calculated from the average EAE score at 14 days after the immunization. […] From the results, the compound is considered effective for encephalomyelitis, multiple sclerosis and the like.

[4] = test system: Biphasic Auricular Edema in Egg Albumin-Induced Mouse; assay: Egg albumin-induced mouse biphasic auricular edema; assay type: in vivo; details: for suppressing rate (%) of auricular edema: 3 mg/kg oral for 3 days, 24 hr later, P <0.05; for suppressive action on edema (in words): 3 mg/kg, 24 hr after induction with egg albumin
Protocol: Using saline (0.5 ml) containing egg albumin (10 μg, manufactured by Sigma-Aldrich Ltd.) and 1 mg of aluminum hydroxide gel, 6 to 7-week-old male BALB/c mice (CHARLES RIVER LABORATORIES JAPAN, INC.) were intraperitoneally immunized. Two weeks later, egg albumin (1.25 μg) was intradermally injected into the auricle of the mice for challenge, whereby biphasic auricular edema was induced 1 hr and 24 hr after the challenge. The compound of the present invention or a pharmaceutically acceptable salt thereof was suspended or dissolved in 0.5% carboxymethylcellulose, and repetitively administered orally at a dose of 0.01-30 mg/kg body weight for 3 days, from 2 days before the antigen challenge to the day of challenge, using an oral gavage needle. As for this model, the thickness of the auricle of the mouse was measured using a dial gauge (manufactured by Ozaki MFG. Co. Ltd.) and used as an index of auricular edema. As regards the thickness of the auricle, each group (n=8) was evaluated using an average value and mean error, with a group administered only with a vehicle being control, and t-test was used for statistical analysis, wherein p value of 0.05 or below was determined to be significant.

[5] = test system: Mouse Graft-Versus-Host Reaction (GvHR); assay: Mouse graft-versus-host reaction (GvHR); assay type: in vivo; details: P <0.05 vs vehicle
Protocol: Cyclophosphamide (manufactured by Shionogi & Co., Ltd.) is administered to male BDF1 recipient mouse (8-week-old, CHARLES RIVER LABORATORIES JAPAN, INC.) at a dose of 300 mg/kg from the tail vein as a pretreatment at 24 hr prior to injection of spleen cells. The spleen was aseptically isolated from male C57BL/6 donor mouse (8-week-old, CHARLES RIVER LABORATORIES JAPAN, INC.), minced in RPMI1640 medium (manufactured by Sigma-Aldrich Ltd.), and passed through a stainless mesh to give a splenocyte single cell suspension. After removal of red blood cells by a hypotonic treatment using a mixed solution of 0.83% aqueous ammonium chloride and Tris-HCl buffer (pH 7.65) at 9:1, splenocytes were washed and suspended in physiological saline to give a splenocyte suspension. The prepared cells were injected at 1×10^8 cells/mouse into the tail vein to induce acute GvHR. The compound of the present invention or a pharmaceutically acceptable salt thereof was suspended or dissolved in 0.5% carboxymethylcellulose, and repetitively administered orally at a dose of 3-30 mg/kg body weight for 28 days from the day of splenocyte injection, and the influence on the survival time was evaluated. After induction of acute GvHR, the survival of each individual was determined every day, and the day of confirmed death was taken as the survival time of each individual. As for the survival time, log-rank test analysis was performed using the group administered with vehicle alone as a control, and the multiplicity was adjusted by the Holm's method, wherein p value of 0.05 or below was determined to be significant.

[6] = 3 mg/kg oral for 28 days from splenocyte injection

Row | SMILES | IC50 ([1]; T-cell) | CD28-dependent T cell growth suppressive action (in words) [1] | inhibition in vivo at 3 mg/kg [2] | suppressing rate (%) of auricular edema [4] | suppressive action on edema (in words) [4] | other results
1 | COC(=O)C[C@@H]1N=C(c2ccc(-c3cccc(C#N)c3)cc2)c2c(sc(C)c2C)-n2c(C)nnc21 [Example 8, Methyl (S)-{4-(3′-cyanobiphenyl-4-yl)-2,3,9-trimethyl-6H-thieno[3,2-f][1,2,4]triazolo[4,3-a][1,4]diazepin-6-yl}acetate] | 26 nM | have a CD28-dependent T cell growth suppressive action | 50% | 40.5% | significant suppressive action on edema | suppressing rate (%) of EAE score ([3]; 10 mg/kg oral): 98%; median survival time [5, 6]: 56 days
2 | COC(=O)C[C@@H]1N=C(c2ccc(-c3ccccc3)cc2)c2c(sc(C)c2C)-n2c(C)nnc21 [Example 61, Methyl (S)-{4-biphenyl-2,3,9-trimethyl-6H-thieno[3,2-f][1,2,4]triazolo[4,3-a][1,4]diazepin-6-yl}acetate] | – | have a CD28-dependent T cell growth suppressive action | – | – | – | IC50 [1]: 55 nM
3 | COC(=O)C[C@@H]1N=C(c2ccc(Nc3ccccc3)cc2)c2c(sc(C)c2C)-n2c(C)nnc21 [Example 120, Methyl (S)-{2,3,9-trimethyl-4-(4-phenylaminophenyl)-6H-thieno[3,2-f][1,2,4]triazolo[4,3-a][1,4]diazepin-6-yl}acetate] | 1.1 nM | have a CD28-dependent T cell growth suppressive action | 53.1% | – | – | –
4 | CCOC(=O)C[C@@H]1N=C(c2ccc(NCc3ccc(F)cc3)cc2)c2c(sc(C)c2C)-n2c(C)nnc21 [Example 163, Ethyl (S)-(4-{4-[(4-fluorophenyl)methylamino]phenyl}-2,3,9-trimethyl-6H-thieno[3,2-f][1,2,4]triazolo[4,3-a][1,4]diazepin-6-yl)acetate] | 70 nM | have a CD28-dependent T cell growth suppressive action | 57.4% | 44.5% | significant suppressive action on edema | suppressing rate (%) of EAE score ([3]; 30 mg/kg oral): 60%; median survival time ([5]; 10 mg/kg oral for 28 days from splenocyte injection): 19 days
5 | COC(=O)C[C@@H]1N=C(c2ccc(NCc3ccccc3)cc2)c2c(sc(C)c2C)-n2c(C)nnc21 [Example 167, Methyl (S)-{4-(4-benzylaminophenyl)-2,3,9-trimethyl-6H-thieno[3,2-f][1,2,4]triazolo[4,3-a][1,4]diazepin-6-yl}acetate] | 29 nM | have a CD28-dependent T cell growth suppressive action | 61.4% | 30.1% | significant suppressive action on edema | suppressing rate (%) of EAE score ([3]; 3 mg/kg oral): 62%; median survival time [5, 6]: 56 days
6 | Cc1sc2c(c1C)C(c1ccc(-c3cccc(C#N)c3)cc1)=NCc1nnc(C)n1-2 [Example 253, 4-(3′-cyanobiphenyl-4-yl)-2,3,9-trimethyl-6H-thieno[3,2-f][1,2,4]triazolo[4,3-a][1,4]diazepin] | 100 nM | have a CD28-dependent T cell growth suppressive action | – | – | – | inhibition in vivo at 10 mg/kg ([2]; po, read-out: suppressing rate (%) of arthritis score): 46.4%
7 | COC(=O)C[C@@H]1N=C(c2ccc(NC(=O)CCc3ccccc3)cc2)c2c(sc(C)c2C)-n2c(C)nnc21 [Example 311, Methyl (S)-{2,3,9-trimethyl-4-[4-(3-phenylpropionylamino)phenyl]-6H-thieno[3,2-f][1,2,4]triazolo[4,3-a][1,4]diazepin-6-yl}acetate] | 25 nM | have a CD28-dependent T cell growth suppressive action | 85.2% | – | – | –
8 | C=CC[C@@H]1/C=C(\C)C[C@H](C)C[C@H](OC)[C@H]2O[C@@](O)(C(=O)C(=O)N3CCCC[C@H]3C(=O)O[C@H](/C(C)=C/[C@@H]3CC[C@@H](O)[C@H](OC)C3)[C@H](C)[C@@H](O)CC1=O)[C@H](C)C[C@@H]2OC [Tacrolimus, tacrolimus, reference compound] | > 1000 nM | – | – | – | – | inhibition of T cell growth at 1 μM (in words) ([1]; 1 μM, calcineurin inhibitor): hardly inhibits the growth even at 1 μM
